Results taken from patent US20140371267A1, “OPHTHALMIC COMPOSITION WITH NITRIC OXIDE DONOR COMPOUND AND METHOD OF FORMING AND USING SAME” (ALCON RESEARCH, LTD., priority 2009, published 2014).

Tests used:
ARPE-19 cells = test: 7-ketocholesterol-induced RPE cell death, WST-1 cell viability; format: cell-based; conditions: for % Survival: compared to media-treated cells
Protocol: Compound 1 was evaluated for its ability to prevent 7-ketocholesterol-induced retinal pigmented epithelial (RPE) cell death in vitro. ARPE-19 cells were grown in DMEM:F12 (Invitrogen) (1:1) with 10% FBS (HyClone) and 56 mM Na Bicarbonate (Gibco) in a 10% CO2 humidified 37° C. incubator. Cells were split at a ratio of 1:3 once per week and fed every 2-3 days. ARPE-19 cells were plated at a density of 12,500 cells per well in 100 μL, which is approximately […].
7-ketocholesterol (5-CHOLESTEN-3β-OL-7-ONE) and Cholesterol (5-CHOLESTEN-3β-OL) (Steraloids, Inc., Newport R.I.) were resuspended in 37° C. 45% 2-hydroxylpropyl-β-cyclodextrin at a concentration of 10 mM. Working dilutions of 1 mM are subsequently made in 37° C. DMEM:/F12 containing 0.1% FBS and NaBicarb. Further dilutions (5 to 30 μM) for treatment were also made in 37° C. DMEM:F12 with 0.1% FBS and NaBicarb to maintain activity of the 7-ketocholesterol. As negative controls, vehicle alone and cholesterol suspended in 2-HP-β-cyclodextrin were included in each experiment.
Cell proliferation reagent WST-1 (Roche), a tetrazolium salt that is cleaved to formazan through the mitochondrial succinate-tetrazolium-reductase system in live cells, was used as a measure of cell viability. Cells were treated with 7-ketocholesterol for 1 day, at which time 10 μL at of WST-1 reagent was added to each well containing 100 μL at of media. The plates were then incubated for 1-4 hours to allow for adequate color development and then absorbance was read in a microplate ELISA reader at […]. WST reagent was also added to one set of control wells containing media only. These readings were subtracted from each of the WST readings as background. Cell viability for all treated wells was normalized to the well with untreated cells and data is presented as percent survival as compared to untreated. The table below summarizes the results.

[1] = in vitro; versus GTN and SNAP; cited from earlier work
[2] = tested on: cynomolgus monkeys with ocular hypertension; test: IOP reduction in lasered ocular hypertensive monkeys; format: in vivo; conditions: 150 μg in 30 μL drop, topical, lasered eye
Protocol: The ability of compound 1 of the present invention to reduce IOP was evaluated in cynomolgus monkeys with ocular hypertension produced by previous laser trabeculoplasty in the right eye. Animals had been trained to sit in restraint chairs and conditioned to accept experimental procedures without chemical restraint. Animals were administered a 30 μL drop containing 150 μg of compound 1 dissolved in vehicle to the lasered eye. IOP was determined with a pneumatonometer after light corneal anesthesia with dilute proparacaine. The drug was dosed 35 minutes after the baseline IOP was measured.

c-GMP = conditions: cited from earlier work
[3] = vasodilators; cited from earlier work

## CC(C)CCC[C@@H](C)[C@H]1CC[C@H]2[C@@H]3C(=O)C=C4C[C@@H](O)CC[C@]4(C)[C@H]3CC[C@]12C [7-ketocholesterol, 5-CHOLESTEN-3β-OL-7-ONE, reference compound]
ARPE-19 cells; 7-ketocholesterol 20 μM alone, 1 day
  % Survival: 50%

## CC1(C)CC(O[N+](=O)[O-])CC(C)(C)N1[O] [Compound 1]
[1]
  vasorelaxation efficacy: superior activity
[2]; 1 hour after dosing
  % IOP change from baseline: −15.3%
[2]; 3 hours after dosing
  % IOP change from baseline: −16.7%
[2]; 6 hours after dosing
  % IOP change from baseline: −20.7%
ARPE-19 cells; 10 μM
  RPE cytoprotection: significant
ARPE-19 cells; 100 μM
  RPE cytoprotection: complete
ARPE-19 cells; compound at 100 nM, 7-ketocholesterol-treated cells
  % Survival: 60%
ARPE-19 cells; compound at 1 μM, 7-ketocholesterol-treated cells
  % Survival: 60%
ARPE-19 cells; compound at 10 μM, 7-ketocholesterol-treated cells
  % Survival: 75%
ARPE-19 cells; compound at 100 μM, 7-ketocholesterol-treated cells
  % Survival: 100%
c-GMP
  c-GMP concentration: significant increase
  c-GMP effect relative to GTN: comparable to that of GTN
[3]
  NO-tolerance in vivo: do not produce NO-tolerance in vivo

## CC1(C)CC(CO[N+](=O)[O-])C(C)(C)N1[O] (stereo not drawn) [Compound 2, 3-Nitratomethyl-Proxyl]
[3]
  NO-tolerance in vivo: do not produce NO-tolerance in vivo
